Biological target: T1, cynomolgus monkey 5α-reductase (Macaca fascicularis, UniProt Q28892)
T1 construct: microsomes were isolated from cynomolgus monkey prostate tissue; from tissue; host or cells: cynomolgus monkey prostate microsomes
T1 sequence (Q28892 1-254): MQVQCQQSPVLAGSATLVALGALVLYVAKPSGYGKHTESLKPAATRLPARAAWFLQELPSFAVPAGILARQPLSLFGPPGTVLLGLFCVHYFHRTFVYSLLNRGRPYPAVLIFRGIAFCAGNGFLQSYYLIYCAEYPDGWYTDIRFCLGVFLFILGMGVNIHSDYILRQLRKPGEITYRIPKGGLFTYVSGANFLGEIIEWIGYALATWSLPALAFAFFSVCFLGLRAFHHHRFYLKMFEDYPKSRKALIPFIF
Experiment: Inhibition of cynomolgus monkey prostatic 5α-reductase (prostate microsomes)
Type: biochemical
Conditions: for IC50: testosterone at Km level
Experimental: The activity of the present compounds as inhibitors of steroid 5α-reductase was determined using microsomal preparations of the 5α-reductase enzyme from laboratory prostate tissue. Specifically, microsomes were isolated from cynomolgus monkey prostate tissue. Protein concentration of the microsomal preparations was determined prior to use of the samples. Individual assays of cynomolgus monkey prostatic 5α-reductase activity contained 0.1M potassium phosphate-sodium citrate buffer (K-Na buffer, 1:1), pH 5.6, 0.1% bovine serum albumin (w/v), 1.0 mM sodium EDTA, 7 to 96 μg of microsomal protein, 1.0 mM NADPH, 5.0 mM glucose-6-phosphate, 1 IU/mL glucose-6 -phosphate dehydrogenase, [1,2-^3 H]-testosterone (0.15 μCi), unlabeled testosterone to yield the desired concentration of substrate, and inhibitor which was dissolved in dimethyl sulfoxide (DMSO) then diluted in K-Na buffer to yield a final assay concentration of 0.1% (v/v) DMSO. The same buffer and DMSO without inhibitor were used in control assays. Background radioactivity was determined from assays containing all components except enzyme. Assays were performed in duplicate. The reaction was initiated by the addition of testosterone and incubated for 20 minutes at 25° C. in a Dubnoff® shaker incubator. Compound to be tested for inhibition was added simultaneously with testosterone. The total volume of the assay was 100 μL.
The 5α-reductase reactions were terminated by the addition of 5 mL chloroform-methanol (2:1) and 0.9 mL water. The carrier steroids were added in the form of 2.5 μg each of testosterone, dihydrotestosterone, and 3,17-androstanediol. […]

Row | SMILES | IC50 | Ki (testosterone 0.5 Km to 8 Km)
1 | C[C@]12CC[C@H]3[C@@H](C=CC4=C(N)C(=O)CC[C@@]43C)[C@@H]1CC[C@@H]2OC1CC1 [Compound 1, 4-Amino-17β-(cyclopropyloxy)androsta-4,6-dien-3-one] | 2.8 nM | –
2 | C[C@]12CC[C@H]3[C@@H](CCC4=C(N)C(=O)CC[C@@]43C)[C@@H]1CC[C@@H]2OC1CC1 [Compound 2, 4-Amino-17β-(cyclopropyloxy)androst-4-en-3-one] | 7.4 nM | 7.8 ± 0.7 nM
